The text below walks through data of patent US9815796B2 (Merck Sharp & Dohme Corp., priority 2013, dated 2017).

This assay has as its target Rhesus PDE2A3 (Macaca mulatta, UniProt B3VTJ2). Description: PDE2 fluorescence polarization (IMAP FP) inhibition assay, rhesus enzyme. Type of assay: biochemical, rhesus macaque. The method, then: The activity of the compounds in accordance with the present invention as PDE2 inhibitors may be readily determined using a fluorescence polarization (FP) methodology (Huang, W., et al., J. Biomol Screen, 2002, 7: 215).
In a typical experiment the PDE2 inhibitory activity of the compounds of the present invention was determined in accordance with the following experimental method. Rhesus PDE2A3 was amplified from rhesus macaque brain cDNA (Biochain Institute, Hayward, Calif.) using primers based on human PDE2A sequence (accession NM_002599.3) where the forward primer containing a Kozak consensus was 5′-[…]-3′ and the reverse primer was 5′-[…]-3′. Amplification with Easy-A High-Fidelity PCR cloning enzyme (Stratagene, La Jolla, Calif.) was 95° C. for 2 minutes followed by thirty three cycles of 95° C. for 40 seconds, 52° C. for 30 seconds, and 72° C. for 2 minutes 48 seconds. Final extension was 72° C. for 7 minutes. The PCR product was TA cloned into pcDNA3.3-TOPO (Invitrogen, Carlsbad, Calif.) according to standard protocol. A consensus sequence was developed from multiple clones and then deposited into GenBank (EU812167). AD293 cells (Stratagene, La Jolla, Calif.) with 70-80% confluency were transiently transfected with rhesus PDE2A3/pcDNA3.3-TOPO using Lipofectamine 2000 according to manufacturer specifications (Invitrogen, Carlsbad, Calif.). Cells were harvested 48 hours post-transfection and lysed by sonication (setting 3, 10×5 sec pulses) in a buffer containing 20 mM HEPES pH 7.4, 1 mM EDTA and Complete Protease Inhibitor Cocktail Tablets (Roche, Indianapolis, Ind.). Lysate was collected by centrifugation at 75,000×g for 20 minutes at 4° C. and supernatant utilized for evaluation of PDE2 activity. The fluorescence polarization assay for cyclic nucleotide phosphodiesterases was performed using an IMAP® FP kit supplied by Molecular Devices, Sunnyvale, Calif. (product # R8139). […] Assays were performed at room temperature in 384-well microtiter plates with an incubation volume of 20.2 μL. Solutions of test compounds were prepared in DMSO and serially diluted with DMSO to yield 8 μL of each of 10 solutions differing by 3-fold in concentration, at 32 serial dilutions per plate. […] 0% of inhibition is determined by using DMSO (1% final concentrations).
A Labcyte Echo 555 (Labcyte, Sunnyvale, Calif.) is used to dispense 200 nL from each well of the titration plate to the 384 well assay plate. Ten microliters of a solution of enzyme (1/2000 final dilution from aliquots; sufficient to produce 20% substrate conversion) was added to the assay plate. Next 10 uL of a separate solution of the substrate FAM-labeled cAMP (50 nM final concentration product # R7506 from Molecular Devices) and the activator cGMP (1 uM final concentration), prepared in the assay buffer (10 mM Tris HCl, pH 7.2, 10 mM MgCl2, 0.05% NaN3 0.01% Tween-20, and 1 mM DTT) was added to the assay plate and shaken to mix. The reaction is allowed to proceed at room temperature for 60 minutes. A binding solution is then made from the kit components, comprised of 80% Solution A, 20% Solution B and binding reagent at a volume of 1/600 the total binding solution. The enzymatic reaction is stopped by addition of 60 μL of the binding solution to each well of the assay plates and the plates are sealed and shaken for 30 seconds. The plate was incubated at room temperature for at least one hour prior to determining the fluorescence polarization (FP). The parallel and perpendicular fluorescence of each well of the plate was measured using a Tecan Genios Pro plate reader (Tecan, Switzerland) or Perkin Elmer EnVision™ plate reader (Waltham, Mass.). Fluorescence polarization (mP) was calculated from the parallel (S) and perpendicular (P) fluorescence of each sample well and the analogous values for the median control well, containing only substrate (So and Po), using the following equation: Polarization (mP)=1000*(S/So−P/Po)/(S/So+P/Po).
A general note: Polarisation of emitted light reports the rotation of a fluorescent probe.

Where [1] appears, read: Rhesus PDE2, Lab B, read-out: Rhesus PDE2 Ki (nM) - Lab B.
The mark [2] stands for this setting: Rhesus PDE2, Lab A, read-out: Rhesus PDE2 Ki (nM) - Lab A.

Read-outs that look alike come from different tables or passages of the source. Bounds are passed on as bounds.

Chain of Rhesus PDE2A3 (B3VTJ2 1-941): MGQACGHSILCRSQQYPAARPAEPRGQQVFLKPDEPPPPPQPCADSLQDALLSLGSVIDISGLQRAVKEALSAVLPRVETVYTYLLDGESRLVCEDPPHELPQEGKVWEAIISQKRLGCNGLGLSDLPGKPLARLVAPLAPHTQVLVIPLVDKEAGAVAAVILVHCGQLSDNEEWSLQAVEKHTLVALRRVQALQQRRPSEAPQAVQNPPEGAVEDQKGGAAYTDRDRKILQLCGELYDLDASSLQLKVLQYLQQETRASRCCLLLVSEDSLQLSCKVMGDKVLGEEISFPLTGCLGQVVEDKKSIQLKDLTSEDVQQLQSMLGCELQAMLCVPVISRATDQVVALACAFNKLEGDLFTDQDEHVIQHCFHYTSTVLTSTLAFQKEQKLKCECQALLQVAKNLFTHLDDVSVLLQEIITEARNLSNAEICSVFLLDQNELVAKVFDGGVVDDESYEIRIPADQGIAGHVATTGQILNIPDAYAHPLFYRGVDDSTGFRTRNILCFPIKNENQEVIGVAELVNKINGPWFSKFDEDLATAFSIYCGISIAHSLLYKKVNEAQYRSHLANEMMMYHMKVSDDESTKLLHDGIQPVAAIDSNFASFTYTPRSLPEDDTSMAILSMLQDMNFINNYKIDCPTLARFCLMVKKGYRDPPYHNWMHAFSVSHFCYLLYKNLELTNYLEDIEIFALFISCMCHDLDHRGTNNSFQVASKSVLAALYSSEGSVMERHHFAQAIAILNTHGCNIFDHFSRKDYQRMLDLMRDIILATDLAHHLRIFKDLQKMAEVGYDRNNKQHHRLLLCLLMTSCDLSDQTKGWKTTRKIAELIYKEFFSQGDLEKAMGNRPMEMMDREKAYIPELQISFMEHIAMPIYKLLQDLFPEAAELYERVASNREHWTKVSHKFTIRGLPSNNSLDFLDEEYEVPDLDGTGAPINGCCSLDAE

For `CC1(C(NC(=O)c2cc(=O)[nH]c(-c3ccccc3)n2)c2ccc(SC(F)(F)F)c(F)c2)CC1` (single isomer, unassigned) [Example 706, (S)- or (R)-N-((3-fluoro-4-((trifluoromethyl)thio)phenyl)(1-methylcyclopropyl)methyl)-6-oxo-2-phenyl-1,6-dihydropyrimidine-4-carboxamide], the inhibition constant (Ki) (usually the dissociation constant of the complex between target and ligand, obtained from inhibition or displacement) under setting [1] is > 2970 nM.
Consider `C[C@@H](NC(=O)c1cc(=O)[nH]c(C2CC2)n1)c1ccc(C(F)(F)F)c2ccccc12` [Example 235, 2-cyclopropyl-6-oxo-N-{(1R)-1-[4-(trifluoromethyl)naphthalen-1-yl]ethyl}-1,6-dihydropyrimidine-4-carboxamide], for which the Ki under setting [2] was 274 nM.
As to `CC(NC(=O)c1cc(=O)[nH]c(-c2ccccc2)n1)c1ccccc1-c1ccccc1` (stereo not shown) [Example 416, N-(1-biphenyl-2-ylethyl)-6-oxo-2-phenyl-1,6-dihydropyrimidine-4-carboxamide], the Ki under setting [1] came out at 1770 nM.
For `CC(C)[C@@H](NC(=O)c1cc(=O)[nH]c(-c2ncccn2)n1)c1ccc(SC(F)(F)F)cc1` [Example 97, N-[(1R)-2-methyl-1-{4-[(trifluoromethyl)sulfanyl]phenyl}propyl]-6-oxo-1,6-dihydro-2,2′-bipyrimidine-4-carboxamide], the inhibitory constant (Ki) under setting [2] worked out at 1.5 nM.
On to `CC(NC(=O)c1cc(=O)[nH]c(-c2ccccc2)n1)c1ccc(S(C)(=O)=O)cc1` (stereo not shown) [Example 382, N-{1-[4-(methylsulfonyl)phenyl]ethyl}-6-oxo-2-phenyl-1,6-dihydropyrimidine-4-carboxamide], for which the Ki under setting [1] is 3120 nM.
On to `Cc1nc(C(=O)N[C@H](C)c2ccc([S+]([O-])C(F)(F)F)cc2)cc(=O)[nH]1` (stereo partly shown) [Example 330], for which the Ki under setting [2] was determined as 809 nM.
Consider `CC[C@@H](NC(=O)c1cc(=O)[nH]c(C(C)(C)c2ccc(OC)cc2)n1)c1ccc(C(F)(F)F)c(F)c1` [Example 503, N-{(1R)-1-[3-fluoro-4-(trifluoromethyl)phenyl]propyl}-2-[1-(4-methoxyphenyl)-1-methylethyl]-6-oxo-1,6-dihydropyrimidine-4-carboxamide], for which the Ki under setting [1] is 111 nM.
On to `CN(Cc1ccc(C(F)(F)F)cc1)C(=O)c1cc(=O)[nH]c(-c2ccccc2)n1` [Example 345, N-methyl-6-oxo-2-phenyl-N-[4-(trifluoromethyl)benzyl]-1,6-dihydropyrimidine-4-carboxamide], for which, under setting [2], the Ki came out at 8340 nM.
With `CCOC(=O)c1ccc([C@@H](C)NC(=O)c2cc(=O)[nH]c(-c3ncccn3)n2)cc1` [Example 432, ethyl 4-[(1R)-1-{[(6-oxo-1,6-dihydro-2,2′-bipyrimidin-4-yl)carbonyl]amino}ethyl]benzoate], the Ki under setting [1] is > 2970 nM.
As for `Cc1nc(C(=O)NC(CO)c2ccc(C(F)(F)F)cc2)cc(=O)[nH]1` (single isomer, unassigned) [Example 311, (S)- or (R)-N-{2-hydroxy-1-[4-(trifluoromethyl)phenyl]ethyl}-2-methyl-6-oxo-1,6-dihydropyrimidine-4-carboxamide], the Ki under setting [2] was 9120 nM.
In the case of `COc1ccc(C(C)(C)c2nc(C(=O)N[C@@H](c3ccc(C(F)(F)F)c(F)c3)C3CC3)cc(=O)[nH]2)cc1` [Example 499, N-{(R)-cyclopropyl[3-fluoro-4-(trifluoromethyl)phenyl]methyl}-2-[1-(4-methoxyphenyl)-1-methylethyl]-6-oxo-1,6-dihydropyrimidine-4-carboxamide], under setting [1], the Ki was 115 nM.
For the compound `CCC(NC(=O)c1cc(=O)[nH]c(C)n1)c1ccc(C(C)(C)C)cc1` (stereo not shown) [Example 12, N-[1-(4-tert-butylphenyl)propyl]-2-methyl-6-oxo-1,6-dihydropyrimidine-4-carboxamide], the Ki under setting [2] stood at 102 nM.
As for `CC(C)(NC(=O)c1cc(=O)[nH]c(-c2ccccc2)n1)c1ccccc1` [Example 390, N-(1-methyl-1-phenylethyl)-6-oxo-2-phenyl-1,6-dihydropyrimidine-4-carboxamide], under setting [1], the Ki was determined as 1700 nM.
For `C[C@@H](NC(=O)c1cc(=O)[nH]c(-c2ncccn2)n1)c1ccc(C(F)(F)F)c2ccccc12` [Example 102, 6-oxo-N-{(1R)-1-[4-(trifluoromethyl)naphthalen-1-yl]ethyl}-1,6-dihydro-2,2′-bipyrimidine-4-carboxamide], the inhibition constant Ki under setting [2] came out at 5120 nM.
For `COc1cc(CN(C)C(=O)c2cc(=O)[nH]c(C)n2)cc(OC)c1OC` [Example 14, N,2-dimethyl-6-oxo-N-(3,4,5-trimethoxybenzyl)-1,6-dihydropyrimidine-4-carboxamide], under setting [2], the Ki was found to be 1860 nM.
Regarding `CN(Cc1cc(F)c(F)c(F)c1)C(=O)c1cc(=O)[nH]c(C2CC2)n1` [Example 206, 2-cyclopropyl-N-methyl-6-oxo-N-(3,4,5-trifluoromethyl)-1,6-dihydropyrimidine-4-carboxamide], the Ki under setting [2] was found to be 24300 nM.
In the case of `CC1(C(NC(=O)c2cc(=O)[nH]c(-c3ncccn3)n2)c2ccc(SC(F)(F)F)c(F)c2)CC1` (single isomer, unassigned) [Example 708, (S)- or (R)-N-((3-fluoro-4-((trifluoromethyl)thio)phenyl)(1-methylcyclopropyl)methyl)-6-oxo-1,6-dihydro-[2,2′-bipyrimidine-4-carboxamide], the inhibition constant (Ki) under setting [1] was ~2120 nM.
The same measure, in the same setting: with `Cc1nc(C(=O)NC(C)(c2ccc(S(F)(F)(F)(F)F)cc2)C(C)C)cc(=O)[nH]1` (single isomer, unassigned) [Example 662, (S)- or (R)-N-{1,2-dimethyl-1-[4-(pentafluoro-λ^6-sulfanyl)phenyl]propyl}-2-methyl-6-oxo-1,6-dihydropyrimidine-4-carboxamide] the figure was ~1220 nM; with `CC(NC(=O)c1cc(=O)[nH]c(-c2ccccc2)n1)c1ccc(-c2ccncc2)cc1` (stereo not shown) [Example 384, 6-oxo-2-phenyl-N-[1-(4-pyridin-4-ylphenyl)ethyl]-1,6-dihydropyrimidine-4-carboxamide], 319 nM.
On to `Cc1nc(C(=O)N[C@H](C)c2cccc(C(F)(F)F)c2)cc(=O)[nH]1` [Example 271, 2-methyl-6-oxo-N-{(1R)-1-[3-(trifluoromethyl)phenyl]ethyl}-1,6-dihydropyrimidine-4-carboxamide], for which, under setting [2], the Ki came out at 2960 nM.
In the case of `C[C@H](c1ccc(C(F)(F)F)cc1)N(C)C(=O)c1cc(=O)[nH]c(-c2ccccc2)n1` [Example 389, N-methyl-6-oxo-2-phenyl-N-{(1R)-1-[4-(trifluoromethyl)phenyl]ethyl}-1,6-dihydropyrimidine-4-carboxamide], the Ki under setting [1] came out at 8980 nM.
On to `CC(C)(NC(=O)c1cc(=O)[nH]c(-c2ncccn2)n1)c1ccc(SC(F)(F)F)c(F)c1` [Example 241, N-(1-{3-fluoro-4-[(trifluoromethyl)sulfanyl]phenyl}-1-methylethyl)-6-oxo-1,6-dihydro-2,2′-bipyrimidine-4-carboxamide], for which, under setting [2], the Ki is 557 nM.
For the compound `COC(=O)c1ccc(C(C)(C)NC(=O)c2cc(=O)[nH]c(-c3ccccc3)n2)cc1` [Example 160, methyl 4-(1-methyl-1-{[(6-oxo-2-phenyl-1,6-dihydropyrimidin-4-yl)carbonyl]amino}ethyl)benzoate], the Ki under setting [2] was determined as 826 nM.
As for `CC(C)(NC(=O)c1cc(=O)[nH]c(-c2ccccc2)n1)c1ccc(F)cc1` [Example 349, N-[1-(4-fluorophenyl)-1-methylethyl]-6-oxo-2-phenyl-1,6-dihydropyrimidine-4-carboxamide], the Ki under setting [2] is ~525 nM and the Ki under setting [1] was found to be 713 nM.
